Measured values from ChEMBL document CHEMBL5375994, “Advances in Development of Selective Antitumor Inhibitors That Target PARP-1” (J Med Chem, 2023).

How the values were obtained:
[1] = target: Poly [ADP-ribose] polymerase 1 (Homo sapiens, UniProt P09874); test: Inhibition of human recombinant PARP-1
[2] = target: Poly [ADP-ribose] polymerase 2 (Homo sapiens, UniProt Q9UGN5); test: Inhibition of PARP-2 (unknown origin)
Chain of Poly [ADP-ribose] polymerase 2 (Q9UGN5 whole entry): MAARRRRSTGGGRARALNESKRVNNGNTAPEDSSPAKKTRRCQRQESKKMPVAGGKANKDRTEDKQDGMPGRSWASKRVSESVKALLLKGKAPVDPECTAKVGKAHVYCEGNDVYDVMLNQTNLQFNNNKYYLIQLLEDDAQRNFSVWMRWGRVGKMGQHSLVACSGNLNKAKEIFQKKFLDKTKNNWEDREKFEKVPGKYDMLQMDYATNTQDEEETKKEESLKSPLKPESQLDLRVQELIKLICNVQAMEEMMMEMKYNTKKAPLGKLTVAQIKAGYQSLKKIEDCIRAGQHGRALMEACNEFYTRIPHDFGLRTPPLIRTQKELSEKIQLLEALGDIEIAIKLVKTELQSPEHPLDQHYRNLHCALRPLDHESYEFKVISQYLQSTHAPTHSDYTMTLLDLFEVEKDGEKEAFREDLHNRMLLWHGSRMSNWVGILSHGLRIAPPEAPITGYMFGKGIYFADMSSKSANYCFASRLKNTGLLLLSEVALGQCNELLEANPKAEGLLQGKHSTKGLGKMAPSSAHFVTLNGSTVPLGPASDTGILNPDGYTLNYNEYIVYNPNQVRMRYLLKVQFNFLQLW

Chain of Poly [ADP-ribose] polymerase 1 (P09874 whole entry): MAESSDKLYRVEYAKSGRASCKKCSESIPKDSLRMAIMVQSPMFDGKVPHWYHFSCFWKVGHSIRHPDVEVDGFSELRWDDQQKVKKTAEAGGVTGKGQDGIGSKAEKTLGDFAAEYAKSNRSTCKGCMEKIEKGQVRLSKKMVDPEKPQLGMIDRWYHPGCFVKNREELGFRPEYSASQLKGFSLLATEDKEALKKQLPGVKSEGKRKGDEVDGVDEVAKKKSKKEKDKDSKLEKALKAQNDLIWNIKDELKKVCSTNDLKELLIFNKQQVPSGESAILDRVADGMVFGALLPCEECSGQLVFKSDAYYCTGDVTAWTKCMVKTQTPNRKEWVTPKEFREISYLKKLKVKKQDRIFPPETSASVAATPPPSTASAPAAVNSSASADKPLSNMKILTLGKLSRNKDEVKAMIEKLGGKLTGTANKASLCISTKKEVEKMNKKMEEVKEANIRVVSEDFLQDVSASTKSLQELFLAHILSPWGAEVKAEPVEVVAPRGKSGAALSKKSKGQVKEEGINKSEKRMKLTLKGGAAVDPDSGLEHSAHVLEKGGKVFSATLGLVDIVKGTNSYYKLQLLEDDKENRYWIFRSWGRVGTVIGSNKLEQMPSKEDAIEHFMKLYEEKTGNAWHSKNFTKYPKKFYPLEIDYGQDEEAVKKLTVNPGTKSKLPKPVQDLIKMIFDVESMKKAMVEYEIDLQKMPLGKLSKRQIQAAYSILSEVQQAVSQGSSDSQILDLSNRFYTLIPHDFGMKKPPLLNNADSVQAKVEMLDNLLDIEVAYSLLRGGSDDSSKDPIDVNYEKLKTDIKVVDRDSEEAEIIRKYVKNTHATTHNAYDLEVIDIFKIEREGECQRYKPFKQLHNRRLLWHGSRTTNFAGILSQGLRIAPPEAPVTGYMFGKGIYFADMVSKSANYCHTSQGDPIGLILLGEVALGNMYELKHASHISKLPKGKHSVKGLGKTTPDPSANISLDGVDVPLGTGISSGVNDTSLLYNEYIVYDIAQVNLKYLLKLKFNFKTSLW

Structure (SMILES): O=c1[nH]c(CCCN2CCC(c3ccccc3)CC2)nc2ccccc12
- IC50 [1]: 21 nM
- IC50 [2]: 608 nM

Structure (SMILES): O=c1[nH]c(CCCN2CCC(c3ccccc3)CC2)nc2c(Cl)cccc12
- IC50 [1]: 23 nM
- IC50 [2]: 610 nM

Structure (SMILES): O=c1[nH]c(CCCN2CCC(c3ccc(F)cc3)CC2)nc2c(Cl)cccc12
- IC50 [1]: 13 nM
- IC50 [2]: 500 nM

Structure (SMILES): N#Cc1ccc(C2CCN(CCCc3nc4c(Cl)cccc4c(=O)[nH]3)CC2)cc1
- IC50 [1]: 3 nM
- IC50 [2]: 87 nM

Structure (SMILES): Cc1cccc2c(=O)[nH]c(CCCN3CCC(c4ccc(F)cc4)CC3)nc12
- IC50 [1]: 16 nM
- IC50 [2]: 167 nM

Structure (SMILES): O=c1[nH]c(CCCN2CCC(c3ccccc3)CC2)nc2cccc(Cl)c12
- IC50 [1]: 68 nM
- IC50 [2]: 630 nM

Structure (SMILES): O=c1[nH]c(CCCN2CCN(c3ccccc3)CC2)nc2cccc(Cl)c12
- IC50 [1]: 11 nM
- IC50 [2]: 300 nM
